Laboratory results taken from patent publication US20100216706A1, “Ghrelin Protects Substantia Nigra Dopamine Neurons” (priority 2007, published 2010).
Values joined by “and” are separate entries in the source; they are usually repeats but may differ in a detail not shown here. Identical values can stand only once. One block for each compound: values may come before it. *: point of attachment. Octyl = CCCCCCCC*

Legend:
[1] = Body weight gain after MPTP in ghrelin wt and ko mice; assay type: in vivo; conditions: from day 1 to day 7 after MPTP
Source text: (§1) Control animals were given saline. Animals were sacrificed and perfused 7 days later and processed for immunohistochemistry or HPLC for dopamine (DA) and metabolites. n=8-10 for ghrelin wt and ko mice; n=6 for GHSR wt/wt, homo/wt and homo/TG.
Wt and ko mice treated with saline gained a similar amount of weight over the 7 days (wt saline 1.39±0.19 g vs ko saline 1.59±0.49 g).

[2] = system: TH neurons in the SNpc; experiment: MPTP-induced TH cell loss in the SNpc (stereology, optical fractionator); assay type: in vivo, mice
Source text: as §1
TH cell quantification: Free floating sections were stained with TH (1:5000, Chemicon International) and visualized with DAB using standard procedures.
Unbiased stereology methods were used to quantify TH immunoreactive cells in the SNpc. Cells were visualized by a Zeiss microscope and relayed via a MicroFibre digital camera (www(dot)optronics(dot)com) to a computer where they were counted using the optical fractionator with the sophisticated Stereolnvestigator software (MicroBrightField, Williston, Vt., USA). Every fourth section was collected through the SNpc, and TH cells were counted in grids randomly positioned by the software in the outlined counting area through all optical planes, thus creating a 3 dimensional counting area.
(§2) The observation that ghrelin promotes SNpc DA neuronal function, mitochondrial respiration and number raises the possibility that ghrelin may protect nigrostriatal dopaminergic system during increased cellular stress. […] In brief, mice were treated with daily IP injections of exogenous ghrelin (10 nmols) or saline for 14 days. Mice were injected immediately before the dark phase, and food was removed overnight since calorie intake and postprandial increases in glucose and insulin can suppress the action of ghrelin (Cummings et al., 2006, Physiol Behav 89: 71-84). Both ghrelin and saline treated mice were given 3 grams of standard chow the following morning at 9 am. […] After the subsequent 7 days of treatment (saline or ghrelin), TH immunoreactive neurons were counted blind by two independent researchers using the non-biased optical fractionator on the stereology program, Stereoinvestigator.

[3] = system: striatal dopamine; experiment: Striatal dopamine after MPTP (HPLC); assay type: in vivo, mice; conditions: saline 14 days, MPTP on day 7
Method: as §1
The samples were subsequently thawed in 0.4 ml of chilled 0.1 M perchloric acid and sonicated. Aliquots were taken for protein quantification using a spectrophotometric assay. Other aliquots were centrifuged, and DA levels were measured in supernatants by high pressure liquid chromatography (HPLC) with electrochemical detection. Concentrations of DA and metabolites were expressed as ng/mg protein (mean±SEM).
as §2

[4] = Matsumoto et al., 2001; cited from earlier work
[5] = target: growth hormone secretagogue receptor 1a (GHSR) on SNpc dopamine neurons, species of the tissue not stated for the experiment (mouse and/or rat); experiment: cell-based or functional assay

Compound: CN1CC=C(c2ccccc2)CC1 [MPTP, 1-methyl-4-phenyl-1,2,5,6 tetrahydropyridine]
- Body weight gain, ghrelin ko mice ([1]; ko saline 1.59±0.49): 1.37 ± 0.15 g
- Body weight gain, ghrelin wt mice ([1]; wt saline 1.39±0.19): 2.16 ± 0.10 g and 2.17 ± 0.10 g
- TH-immunoreactive cells in SNpc, ghrelin−/− mice ([2]; MPTP 30 mg/kg IP, 7 days, ko saline 8580±78): 3691±550
- TH-immunoreactive cells in SNpc, ghrelin+/+ mice ([2]; MPTP 30 mg/kg IP, 7 days, wt saline 9105±342): 6688±610
- TH neurons in SNpc, GHSR homo/TG (TH-only) mice ([2]; MPTP, homo/TG saline 12293±1123): 9401±743
- TH neurons in SNpc, GHSR homo/wt (null) mice ([2]; MPTP, homo/wt saline 11590±1133): 6582±636
- TH neurons in SNpc, GHSR wt/wt mice ([2]; MPTP, wt/wt saline 11902±713): 9171±765
- Dopamine cell loss compared to controls, saline treatment after MPTP lesion ([2]; saline 14 days, MPTP on day 7): 49%
- Total TH neurons in SNpc, sal/MPTP ([2]; wt mice, saline 14 days, MPTP 30 mg/kg IP on day 7, sal/sal 11283±342): 5750±432
- Loss of striatal dopamine vs controls, sal/MPTP [3]: 65%
- Striatal dopamine concentration, sal/MPTP ([3]; sal/sal 147.4±10.2): 51.4±2.7 ng/mg protein

Compound: 5-aminopentanoyl-Ser(Octyl)-Phe-Leu-aminoethylamide ({5‑aminopentanoyl}-Ser(Octyl)-Phe-Leu-aminoethylamide; also: acylation site at position 3; listed as Homo sapiens)
- Ghrelin activity [4]: potent ghrelin activity

- action potential frequency of SNpc DA neurons (whole-cell current clamp, brain slices) [5]: 132 % of control
Compound: ghrelin (unlabeled, Phoenix Pharmaceuticals) (peptide)
